Data published in DBAASP.
Values after ≈ are worked out from the molar mass of the structure shown. Each block holds one compound with its values, some of them ahead of it.

What was measured:
Test in all cases: ≥ marks a high value that may be exact or a test limit, other limits are often not marked, values filed in µg/mL are converted to µM
[1] = system: Klebsiella pneumoniae ATCC 27736
[2] = system: Pseudomonas aeruginosa ATCC BAA-427
[3] = system: Bacillus subtilis ATCC 6633
[4] = system: Cronobacter sakazakii DSM 4485
[5] = system: Cronobacter muytjensii ATCC 51329
[6] = system: Salmonella enterica subsp. enterica serovar Typhimurium LT2
[7] = system: Cronobacter sakazakii ATCC BAA-894
[8] = system: Staphylococcus aureus NCTC 8325-4
[9] = system: Escherichia coli NCIMB 11843
[10] = system: Staphylococcus aureus SA113
[11] = system: Cronobacter sakazakii DPC 6440
[12] = system: Staphylococcus aureus RF122
[13] = system: Staphylococcus aureus Newman
[14] = system: Klebsiella pneumoniae NCIMB 13218
[15] = system: Pseudomonas fluorescens NCIMB 9046
[16] = system: Staphylococcus aureus RN4220
[17] = system: Pseudomonas aeruginosa 253
[18] = system: Pseudomonas aeruginosa PAO1
[19] = system: Pseudomonas aeruginosa 919
[20] = system: Pseudomonas aeruginosa 910
[21] = system: Escherichia coli DH5alpha
Staphylococcus xylosus = system: Staphylococcus xylosus
[22] = system: Trichosporon beigelii KCTC 7707
[23] = system: Staphylococcus aureus KCTC 1621
[24] = system: Escherichia coli KCTC 1682
[25] = system: Pseudomonas aeruginosa KCTC 1637
[26] = system: Salmonella typhimurium KCTC 1926
[27] = system: Candida albicans TIMM 1768
[28] = system: Bacillus subtilis KCTC 1918
[29] = system: Staphylococcus aureus ATCC 29213
[30] = system: Candida albicans ATCC 37092
[31] = system: Escherichia coli ATCC 25922
[32] = system: Corynebacterium glutamicum ATCC 13032
[33] = system: Staphylococcus aureus ATCC 9144
Escherichia coli HB101 = system: Escherichia coli HB101
[34] = system: Pseudomonas aeruginosa ATCC 27853

MIC [1]: 12 µM (≈ 30.3 µg/mL)
MIC [2]: 24 µM (≈ 60.7 µg/mL)
MIC [3]: 16 µM (≈ 40.5 µg/mL)
SMILES: CC[C@H](C)[C@H](NC(=O)CNC(=O)[C@H](CCCN=C(N)N)NC(=O)[C@H](C)NC(=O)[C@H](Cc1ccccc1)NC(=O)[C@H](Cc1cnc[nH]1)NC(=O)[C@H](Cc1cnc[nH]1)NC(=O)[C@H](Cc1ccccc1)NC(=O)[C@@H](N)Cc1ccccc1)C(=O)N[C@H](C(=O)N[C@@H](Cc1cnc[nH]1)C(=O)N[C@H](C(=O)NCC(=O)N[C@@H](CCCCN)C(=O)N[C@H](C(=O)N[C@H](C(=O)N[C@@H](Cc1cnc[nH]1)C(=O)N[C@@H](CCCN=C(N)N)C(=O)N[C@@H](CC(C)C)C(=O)N[C@H](C(=O)N[C@H](C(=O)NCC(N)=O)[C@@H](C)O)C(C)C)[C@@H](C)CC)[C@@H](C)O)C(C)C)C(C)C [FFHHFARGIVHVGKTIHRLVTG]

MIC [4]: ≥ 2500 µM
MIC [5]: ≥ 2500 µM
MIC [6]: ≥ 2500 µM
MIC [7]: ≥ 1250 µM
MIC [8]: ≥ 2500 µM
MIC [9]: ≥ 2500 µM
MIC [10]: ≥ 2500 µM
MIC [11]: ≥ 625 µM
MIC [12]: ≥ 625 µM
MIC [13]: ≥ 2500 µM
MIC [14]: ≥ 2500 µM
MIC [15]: ≥ 2500 µM
MIC [16]: ≥ 625 µM
SMILES: CC[C@H](C)[C@H](N)C(=O)N[C@@H](CCCCN)C(=O)N[C@@H](Cc1cnc[nH]1)C(=O)N[C@@H](CCC(N)=O)C(=O)NCC(=O)N[C@@H](CC(C)C)C(=O)N1CCC[C@H]1C(=O)N[C@@H](CCC(N)=O)C(=O)N[C@@H](C)C(=O)O [IKHQGLPQA]

MIC [4]: ≥ 2500 µM
MIC [5]: ≥ 2500 µM
MIC [6]: ≥ 2500 µM
MIC [7]: ≥ 2500 µM
MIC [8]: ≥ 2500 µM
MIC [9]: ≥ 2500 µM
MIC [10]: ≥ 2500 µM
MIC [11]: ≥ 2500 µM
MIC [12]: ≥ 2500 µM
MIC [13]: ≥ 2500 µM
MIC [14]: ≥ 2500 µM
MIC [15]: ≥ 2500 µM
MIC [16]: ≥ 2500 µM
SMILES: CC[C@H](C)[C@H](N)C(=O)N[C@@H](CCCCN)C(=O)N[C@@H](Cc1cnc[nH]1)C(=O)N[C@@H](CCC(N)=O)C(=O)NCC(=O)N[C@@H](CCCN=C(N)N)C(=O)N1CCC[C@H]1C(=O)N[C@@H](CCC(N)=O)C(=O)N[C@@H](CCC(=O)O)C(=O)O [IKHQGRPQE]

MIC [17]: 16 µM (≈ 30.3 µg/mL)
MIC [18]: 2 µM (≈ 3.79 µg/mL)
MIC [19]: 16 µM (≈ 30.3 µg/mL)
MIC [20]: 4 µM (≈ 7.59 µg/mL)
SMILES: CC[C@H](C)[C@H](N)C(=O)N[C@@H](CC(C)C)C(=O)N[C@@H](CCCCN)C(=O)N[C@@H](Cc1c[nH]c2ccccc12)C(=O)N[C@@H](CCCCN)C(=O)N[C@@H](CCSC)C(=O)N[C@@H](Cc1ccccc1)C(=O)N[C@@H](CCCCN)C(=O)N[C@@H](Cc1c[nH]c2ccccc12)C(=O)N[C@@H](CCCCN)C(=O)N[C@@H](Cc1c[nH]c2ccccc12)C(=O)N[C@@H](Cc1ccccc1)C(=O)N[C@@H](CCCN=C(N)N)C(N)=O [ILKWKMFKWKWFR]

MIC [21]: ≥ 64 µM
MIC (Staphylococcus xylosus): 16 µM (≈ 13.5 µg/mL)
SMILES: NCCCC[C@H](NC(=O)[C@H](CCCN=C(N)N)NC(=O)[C@H](CCCCN)NC(=O)[C@H](CCCCN)NC(=O)[C@H](CCCN=C(N)N)NC(=O)[C@@H](N)CCCCN)C(=O)O [KRKKRK]

MIC [22]: 1.56 µM (≈ 2.75 µg/mL)
MIC [23]: 6.25 µM (≈ 11 µg/mL)
MIC [24]: 6.25 µM (≈ 11 µg/mL)
MIC [25]: 3.12 µM (≈ 5.5 µg/mL)
MIC [26]: 1.56 µM (≈ 2.75 µg/mL)
MIC [27]: 12.5 µM (≈ 22 µg/mL)
MIC [28]: 3.12 µM (≈ 5.5 µg/mL)
SMILES: CC(C)C[C@H](NC(=O)[C@H](CCCCN)NC(=O)[C@H](CCCCN)NC(=O)[C@H](CC(C)C)NC(=O)[C@H](CC(C)C)NC(=O)[C@H](CCCCN)NC(=O)[C@H](CCCCN)NC(=O)[C@H](CC(C)C)NC(=O)[C@H](CC(C)C)NC(=O)[C@@H]1CCCN1C(=O)[C@H](CCCCN)NC(=O)[C@H](CCCCN)NC(=O)[C@H](Cc1c[nH]c2ccccc12)NC(=O)[C@@H](N)CCCCN)C(N)=O [KWKKPLLKKLLKKL]

MIC [29]: > 500 µM
MIC [30]: 17.6 µM (≈ 41.5 µg/mL)
MIC [31]: 18.1 µM (≈ 42.7 µg/mL)
SMILES: CC(C)C[C@H](NC(=O)[C@H](CCCN=C(N)N)NC(=O)[C@@H]1CCCN1C(=O)[C@@H]1CCCN1C(=O)[C@H](CCCN=C(N)N)NC(=O)[C@@H]1CCCN1)C(=O)N1CCC[C@H]1C(=O)N[C@@H](CCCN=C(N)N)C(=O)N1CCC[C@H]1C(=O)N[C@@H](CCCN=C(N)N)C(=O)N1CCC[C@H]1C(=O)N[C@@H](CCCN=C(N)N)C(=O)N1CCC[C@H]1C(=O)N[C@@H](CC(C)C)C(=O)N1CCC[C@H]1C(=O)N[C@@H](Cc1ccccc1)C(=O)N1CCC[C@H]1C(=O)N[C@@H](CCCN=C(N)N)C(=O)N1CCC[C@H]1C(=O)NCC(=O)O [PRPPRLPRPRPRPLPFPRPG]

MIC [21]: 16 µM (≈ 20.5 µg/mL)
MIC (Staphylococcus xylosus): 4 µM (≈ 5.12 µg/mL)
SMILES: CC[C@H](C)[C@H](NC(=O)[C@H](CC(C)C)NC(=O)[C@@H](NC(=O)[C@H](CC(C)C)NC(=O)[C@@H](NC(=O)[C@H](CCCCN)NC(=O)[C@@H](N)CCCN=C(N)N)[C@@H](C)CC)[C@@H](C)CC)C(=O)N[C@@H](CCCCN)C(=O)N[C@@H](CCCN=C(N)N)C(=O)N[C@@H](CCCCN)C(=O)O [RKILILIKRK]

MIC [17]: 8 µM (≈ 10.4 µg/mL)
MIC [18]: 4 µM (≈ 5.19 µg/mL)
MIC [19]: 4 µM (≈ 5.19 µg/mL)
MIC [20]: 4 µM (≈ 5.19 µg/mL)
SMILES: CC[C@H](C)[C@H](NC(=O)[C@@H](NC(=O)[C@H](CCCN=C(N)N)NC(=O)[C@H](Cc1c[nH]c2ccccc12)NC(=O)[C@H](CCCN=C(N)N)NC(=O)[C@@H](N)CCCN=C(N)N)C(C)C)C(=O)N[C@H](C(=O)N[C@@H](CCCCN)C(=O)N[C@@H](Cc1c[nH]c2ccccc12)C(N)=O)C(C)C [RRWRVIVKW]

MIC [32]: 17.7 µM (≈ 41.2 µg/mL)
MIC [31]: > 100 µM
MIC [33]: ≥ 100 µM
MIC (Escherichia coli HB101): ≥ 35.4 µM
MIC [34]: > 100 µM
SMILES: CC[C@H](C)[C@H](NC(=O)[C@@H]1CCCN1C(=O)[C@H](CCCCN)NC(=O)[C@@H]1CCCN1C(=O)[C@H](CCCN=C(N)N)NC(=O)CNC(=O)[C@@H]1CCCN1C(=O)[C@H](Cc1ccccc1)NC(=O)[C@@H]1CCCN1C(=O)[C@H](CCCN=C(N)N)NC(=O)[C@@H]1CCCN1C(=O)[C@H](CCCN=C(N)N)NC(=O)CNC(=O)[C@@H]1CCCN1C(=O)[C@H](CO)NC(=O)[C@@H]1CCCN1C(=O)[C@H](Cc1c[nH]c2ccccc12)NC(=O)[C@H](CCCN=C(N)N)NC(=O)[C@@H](N)CO)C(=O)N[C@@H](Cc1ccccc1)C(=O)O [SRWPSPGRPRPFPGRPKPIF]

MIC [4]: ≥ 2500 µM
MIC [5]: ≥ 1250 µM
MIC [6]: ≥ 1250 µM
MIC [7]: ≥ 1250 µM
MIC [8]: ≥ 312 µM
MIC [9]: ≥ 2500 µM
MIC [10]: ≥ 312 µM
MIC [11]: ≥ 625 µM
MIC [12]: ≥ 1250 µM
MIC [13]: ≥ 1250 µM
MIC [14]: ≥ 1250 µM
MIC [15]: ≥ 2500 µM
MIC [34]: 64 µM (≈ 53.8 µg/mL)
MIC [16]: ≥ 1250 µM
SMILES: CC(C)C[C@H](NC(=O)[C@H](CC(C)C)NC(=O)[C@H](CC(N)=O)NC(=O)[C@H](CC(N)=O)NC(=O)[C@H](CC(C)C)NC(=O)[C@@H](N)C(C)C)C(=O)N[C@@H](CCCN=C(N)N)C(=O)O [VLNNLLR]
